Several values for one entry are separate records, joined by “and”; a condition that tells them apart may be missing. Equal entries are not always repeated. Where two headings read alike, the source gives them in different places.
Columns and labels:
[1] = Interactions with water molecules, thermogravimetric analysis (TGA); format: physicochemical; conditions: TGA 30-200° C. at 10° C./min, 1 mM in water with 1% DMSO
Description: TGA was performed on a Perkin Elmer TGA 800 using Pyris software. A temperature scan from 30° C. to 200° C. at a rate of 10° C./min was performed. The isomers were analyzed at a concentration of 1 mM in water (containing 1% DMSO).

[2] = Octanol:water partition coefficient (Log P), HPLC
Description: The octanol:water partition coefficients of the trans and cis isomers of 3-(2-bromo-3,4-dihydroxy-phenyl)-N-(3,4,5-trihydroxy-benzyl)-thioacrylamide were determined.
A solution of 10 mM of the trans isomer in DMSO was prepared and diluted 10-fold in water. A solution of the cis isomer was obtained by exposing the trans isomer solution (5 mL) to 125 lux light at 4° C. for 9 hours resulting in a solution containing more than 90% of the cis isomer. Partitioning in octanol:water was performed as follows: 20 μL of each solution were added to 80 μL of water (saturated by octanol, containing 1 mM of ascorbic acid) and 100 μl of octanol (saturated by water). The obtained solutions were stirred for 1 min and left for incubation at RT for 24 hours. Then, each phase was analyzed by HPLC. The concentration (C) of each isomer was determined using a calibration curve, based on the injection volume of each phase and a response factor of 1 (previously measured).
For all said analyses a volume of 13 μL was injected to the HPLC.

[3] = Stability in biorelevant fluids (FaSSGF, FaSSIF), HPLC; conditions: for Percent of isomer in FaSSGF / Percent of isomer in FaSSIF: 250 μM
Description: The stability of the trans and cis isomers of 3-(2-bromo-3,4-dihydroxy-phenyl)-N-(3,4,5-trihydroxy-benzyl)-thioacrylamide in biorelevant fluids was assessed, including Fasted State Simulated Intestinal Fluid (FaSSIF) and Fasted State Simulated Gastric Fluid (FaSSGF).
A solution containing the cis isomer of 3-(2-bromo-3,4-dihydroxy-phenyl)-N-(3,4,5-trihydroxy-benzyl)-thioacrylamide was prepared by exposing a 5 mL solution of the 100% trans isomer at a concentration of 1 mM to 125 lux light for 9 hours at 4° C.
FaSSIF and FaSSGF solutions were prepared according to the manufacturer's instructions.
The cis and trans isomers of 3-(2-bromo-3,4-dihydroxy-phenyl)-N-(3,4,5-trihydroxy-benzyl)-thioacrylamide were diluted in either FaSSIF or FaSSGF solutions to a final concentration of 250 μM. Samples were taken at time 0 and after 4 hours. Samples were frozen in liquid nitrogen, and stored frozen until analysis.

[4] = Exposure of trans isomer to artificial daylight, 1H NMR analysis; format: physicochemical; conditions: 10% d6-DMSO in buffer pH 7.4, artificial daylight 5 hr
Source text: A sample of substantially pure trans isomer of 3-(2-bromo-3,4-dihydroxy-phenyl)-N-(3,4,5-trihydroxy-benzyl)-thioacrylamide in 10% d6-DMSO in a buffer (pH 7.4) was irradiated with an artificial daylight for 5 hr. Thereafter, the solution was characterized by ^1H-NMR analyses.
Thus, differentiating between the two isomers can be performed using ^1H-NMR analysis.

[5] = Exposure of trans isomer in HPCD solution to room lighting, UV analysis; format: physicochemical; conditions: 0.5 mg/mL in 0.025% phosphoric acid (diluted from HPCD solution), clear glass vials, room lighting several days
[6] = format: physicochemical; conditions: 1 mM, 125 lux light
Source text: An additional assessment of the stability of the trans isomer upon exposure to artificial daylight was made.

[7] = simulated intestinal fluid, 0 h
[8] = simulated intestinal fluid, 0.5 h

Oc1cc(CNC(=S)C=Cc2ccc(O)c(O)c2Br)cc(O)c1O (single isomer, unassigned; isomer 3) [cis isomer]
Maximum evaporation rate (bound water) [1]: 12%/min
Maximum evaporation rate (free water) [1]: 37 %/min
Temperature of mid evaporation (free water) [1]: 58 °C
Maximum evaporation rate (free water) ([1]; listed as Cis isomer): 37%/min
logP at 24 h [2]: -0.18
reduction of concentration in FaSSGF ([3]; simulated gastric fluid, 0 to 4 h): ~16%
Percent of isomer in FaSSGF ([3]; simulated gastric fluid, 0 h): 89.05%
Percent of isomer in FaSSGF ([3]; simulated gastric fluid, 0.5 h): 89.07%
Percent of isomer in FaSSGF ([3]; simulated gastric fluid, 4 h): 73.47%
Percent of isomer in FaSSIF [3, 7]: 83.49%
Percent of isomer in FaSSIF [3, 8]: 72.21%
Percent of isomer in FaSSIF ([3]; simulated intestinal fluid, 4 h, listed as Cis): 54.87%
Percent of isomer in FaSSIF ([3]; simulated intestinal fluid, 4 h, listed as cis): ~55%

Oc1cc(CNC(=S)/C=C/c2ccc(O)c(O)c2Br)cc(O)c1O [trans isomer]
conversion of the trans isomer to the cis isomer (1H-NMR) [4]: significant conversion
conversion of the trans isomer to the cis isomer [5]: conversion of the trans isomer to the cis isomer
% cis ([6]; 0 hours): 0%
% trans ([6]; 0 hours): 100%
% trans ([6]; 1 hour): 50.5%
% cis ([6]; 2 hours): 64% and 63.7%
% trans ([6]; 2 hours): 36.3%
% cis ([6]; 4 hours): 87.7%
% trans ([6]; 4 hours): 12.3%
% trans ([6]; 5 hours): 8.5%
% cis ([6]; 6 hours): 92.1%
% trans ([6]; 6 hours): 7.9%
Maximum evaporation rate (bound water) [1]: 12%/min
Maximum evaporation rate (free water) [1]: 23 %/min
Temperature of mid evaporation (free water) [1]: 87 °C
Maximum evaporation rate (free water) ([1]; listed as Trans isomer): 23%/min
logP at 24 h (physchem): 0.86
Percent of isomer in FaSSGF ([3]; simulated gastric fluid, 0 h): 100%
Percent of isomer in FaSSGF ([3]; simulated gastric fluid, 0.5 h): 100%
Percent of isomer in FaSSGF ([3]; simulated gastric fluid, 4 h): 100%
stability in FaSSGF ([3]; simulated gastric fluid, up to 4 h): completely stable
reduction of concentration in FaSSIF ([3]; simulated intestinal fluid, 0 to 4 h): ~7%
Percent of isomer in FaSSIF [3, 7]: 98.15%
Percent of isomer in FaSSIF [3, 8]: 96.25%
Percent of isomer in FaSSIF ([3]; simulated intestinal fluid, 4 h): 90.98%

— patent US20240425452A1
